Here are results for two compounds from EP0137212A2, “Ointment bases and ointments” (OTSUKA PHARMACEUTICAL CO., LTD., priority 1983, dated 1985).

SMILES strings stand for the structures. In brackets after ≈: the same amount, converted by molar mass. Like-named read-outs stand apart in the source and are kept apart here.

One series in a line: Steroid Solubility Test. In kind it is physicochemical. How it is done:
This test was conducted to determine the maximum weight of Steroids A and B that could completely dissolve in 1 ml of various solvents at a temperature of 20°C.

Series [1] relates to carrageenin-induced paw edema. The series can be described thus: Inhibition of carrageenin-induced paw edema in rats. In kind it is in vivo. The following applies: 200 mg ointment (Ointment A / Ointment B) rubbed into right hind paw 1 and 2 hours before carrageenin. Here is the method:
After the ointment was applied to a rat's hind paw, carrageenin serving as a phlogogen was injected into the same hind paw, and the swelling caused by the phlogogen was measured. More specifically stated, the test was carried out as given below, using groups of 5 rats (weighing 175 g). First, the right hind paw of the rat was immersed in water, and the displacement was measured thereby giving the volume of hind paw. One and 2 hours before the injection of the phlogogen (carrageenin), 200 mg of the ointment was elaborately rubbed into the right hind paw of the rat, which was then wrapped in Saran Wrap (trademark) and covered with an elastic strip of adhesive plaster. Thereafter, 0.1 ml of a 1% solution of carrageenin was injected into the right hind paw, and the volume of the hind paw was hourly measured to determine the swelling (%) according to the following equation based on the volume thereof before the injection with the results shown in Fig. 1. [formula] wherein V0 is the volume of the right hind paw before the injection of carrageenin and V1 is the volume thereof after the injection of carrageenin.

As to `CCOC(=O)O[C@]1(C(=O)OCCl)CC[C@H]2[C@@H]3CCC4=CC(=O)C=C[C@]4(C)[C@H]3[C@@H](O)C[C@@]21C` [Steroid A, chloromethyl 17α-ethoxycarbonyloxy-11β-hydroxyandrosta-1,4-diene-3-one-17β-carboxylate], the solubility in “Steroid Solubility Test” (organic solvent or mixture, solvent 1,3-Butanediol, 20°C, read-out: maximum weight that could completely dissolve in 1 ml of solvent) is 1950 µg/mL (≈ 4.18 mM); in the series “Steroid Solubility Test” (organic solvent or mixture, solvent 1,3-Dimethyl-2-imidazolidinone, 20°C, read-out: maximum weight that could completely dissolve in 1 ml of solvent), 357000 µg/mL (≈ 765 mM); in “Steroid Solubility Test” (organic solvent or mixture, solvent Benzyl alcohol, 20°C, read-out: maximum weight that could completely dissolve in 1 ml of solvent) it was greater than 25000 µg/mL; in the series “Steroid Solubility Test” (organic solvent or mixture, solvent Diethyl sebacate, 20°C, read-out: maximum weight that could completely dissolve in 1 ml of solvent), 6850 µg/mL (≈ 14.7 mM); in “Steroid Solubility Test” (organic solvent or mixture, solvent Polyethylene glycol 400, 20°C, read-out: maximum weight that could completely dissolve in 1 ml of solvent), 13300 µg/mL (≈ 28.5 mM); in the series “Steroid Solubility Test” (organic solvent or mixture, solvent Propylene glycol, 20°C, read-out: maximum weight that could completely dissolve in 1 ml of solvent), 2700 µg/mL (≈ 5.78 mM). The “anti-inflammatory activity (swelling of hind paw, Fig. 1, in words)” value in series [1] is “exhibit an anti-inflammatory activity”.

On to `CCOC(=O)O[C@]1(C(=O)OCCl)[C@H](C)C[C@H]2[C@@H]3CCC4=CC(=O)C=C[C@]4(C)[C@@]3(F)[C@@H](O)C[C@@]21C` [Steroid B, chloromethyl 17a-ethoxycarbonyloxy-9a-fluoro-11β-hydroxy-16α-methylandrosta-1,4-diene-3-one-17β-carboxylate], for which the solubility is 50 µg/mL (≈ 0.1 mM) in “Steroid Solubility Test” (1,3-butanediol, organic solvent or mixture); 52100 µg/mL (≈ 104 mM) in the series “Steroid Solubility Test” (1,3-dimethyl-2-imidazolidinone, organic solvent or mixture); 920 µg/mL (≈ 1.84 mM) in the series “Steroid Solubility Test” (benzyl alcohol, organic solvent or mixture); 280 µg/mL (≈ 0.561 mM) in the series “Steroid Solubility Test” (diethyl sebacate, organic solvent or mixture); 450 µg/mL (≈ 0.902 mM) in the series “Steroid Solubility Test” (polyethylene glycol 400, organic solvent or mixture); 100 µg/mL (≈ 0.2 mM) in the series “Steroid Solubility Test” (propylene glycol, organic solvent or mixture). For the same compound, the “anti-inflammatory activity (swelling of hind paw, Fig. 1, in words)” value in series [1] was “exhibit an anti-inflammatory activity”.
